The values below come from patent US20240115557A1, “INHIBITORS OF RNA-GUIDED NUCLEASES AND USES THEREOF” (The Brigham and Women's Hospital, Inc., priority 2022, published 2024).

One test deals with SpCas9:gRNA (Streptococcus pyogenes serotype M1, UniProt Q99ZW2). Put plainly: Photo-crosslinking to purified SpCas9:gRNA. Particulars: 1 μM probe, 1 μM SpCas9:gRNA, UV 365 nm. Type of test: binding. The protocol:
Cas9 RNP complex was formed by mixing Cas9 (1 μM) and the eGFP-targeting gRNA (1 μM) in a binding buffer (HEPES 20 mM, KCl 100 mM, pH 7.6) for 15 min. Next, BRD7586 (5 μM) was added to the mixture when competition is required (the last lane of FIG. 68B). Finally, Diazirine-BRD7586 was added (1 μM) and the mixture was incubated for 20 min at RT with a final reaction volume of 20 μL in a PCR tube. The mixture was irradiated with UV (365 nm) for 5 min on ice, then 2.5 μL of 10% RapiGest SF solution in PBS was added. Click chemistry was initiated by adding 100 μM of TAMRA-azide (Sigma #760757), 350 μM of Cu-TBTA, and 1.5 mM ascorbate with a final reaction volume of 27 μL. The reaction was conducted for 1 h at 30° C., then SDS-PAGE was performed immediately. The fluorescence gel scanning was conducted using an Azure 600 (Azure Biosystem) to detect the TAMRA fluorescence.

Test [1] addresses T1, SpCas9 (Streptococcus pyogenes serotype M1, UniProt Q99ZW2). Put plainly: T7E1 assay for indels at the eGFP gene. The class given is cell-based. Particulars: U2OS.eGFP.PEST, 24 h. The protocol:
FIG. 72A-72E Validation of BRD7586 in cells FIG. 72A T7E1 assay for detecting indels at the eGFP gene. U20S.eGFP.PEST cells were nucleofected with plasmid and incubated with BRD7586 for 24 h. Blue arrowheads indicate uncleaved DNA and black arrowheads indicate cleaved DNA. FIG. 72B T7E1 for detecting indels at the eGFP gene. U20S.eGFP.PEST cells were nucleofected with RNP and incubated with BRD7586 for 24 h. Blue arrowheads indicate uncleaved DNA and black arrowheads indicate cleaved DNA FIG. 72C Inhibition of SpCas9 by BRD0539 and BRD7586 in the eGFP disruption assay using plasmid delivery method and RNP delivery method (U20S.eGFP.PEST cells, 24 h). Error bars represent SD from 3 or 4 independent experiments. […]
FIG. 75A-75E Mechanism of action studies of BRD7586 FIG. 75A Workflow of the chemoproteomics experiments using the diazirine-based photo-crosslinking probe to identify binding sites of BRD7586 on SpCas9 FIG. 75B T7E1 assay for measuring the activity of Diazirine-BRD7586. […] Blue arrowheads indicate uncleaved DNA while black arrowheads indicate cleaved DNA from the T7E1 reaction FIG. 75C Chemical structure of the acid-cleavable and isotope-coded biotin-azide used for chemoproteomics experiments FIG. 75D Structure of the peptide-compound conjugates to be detected from the mass spectrometry. […]

In another test the target is FnCpf1 (Francisella tularensis subsp. novicida, UniProt A0Q7Q2). The class given is biochemical. Particulars: 20 uM.
FnCpf1, sequence (A0Q7Q2 whole entry, looked up): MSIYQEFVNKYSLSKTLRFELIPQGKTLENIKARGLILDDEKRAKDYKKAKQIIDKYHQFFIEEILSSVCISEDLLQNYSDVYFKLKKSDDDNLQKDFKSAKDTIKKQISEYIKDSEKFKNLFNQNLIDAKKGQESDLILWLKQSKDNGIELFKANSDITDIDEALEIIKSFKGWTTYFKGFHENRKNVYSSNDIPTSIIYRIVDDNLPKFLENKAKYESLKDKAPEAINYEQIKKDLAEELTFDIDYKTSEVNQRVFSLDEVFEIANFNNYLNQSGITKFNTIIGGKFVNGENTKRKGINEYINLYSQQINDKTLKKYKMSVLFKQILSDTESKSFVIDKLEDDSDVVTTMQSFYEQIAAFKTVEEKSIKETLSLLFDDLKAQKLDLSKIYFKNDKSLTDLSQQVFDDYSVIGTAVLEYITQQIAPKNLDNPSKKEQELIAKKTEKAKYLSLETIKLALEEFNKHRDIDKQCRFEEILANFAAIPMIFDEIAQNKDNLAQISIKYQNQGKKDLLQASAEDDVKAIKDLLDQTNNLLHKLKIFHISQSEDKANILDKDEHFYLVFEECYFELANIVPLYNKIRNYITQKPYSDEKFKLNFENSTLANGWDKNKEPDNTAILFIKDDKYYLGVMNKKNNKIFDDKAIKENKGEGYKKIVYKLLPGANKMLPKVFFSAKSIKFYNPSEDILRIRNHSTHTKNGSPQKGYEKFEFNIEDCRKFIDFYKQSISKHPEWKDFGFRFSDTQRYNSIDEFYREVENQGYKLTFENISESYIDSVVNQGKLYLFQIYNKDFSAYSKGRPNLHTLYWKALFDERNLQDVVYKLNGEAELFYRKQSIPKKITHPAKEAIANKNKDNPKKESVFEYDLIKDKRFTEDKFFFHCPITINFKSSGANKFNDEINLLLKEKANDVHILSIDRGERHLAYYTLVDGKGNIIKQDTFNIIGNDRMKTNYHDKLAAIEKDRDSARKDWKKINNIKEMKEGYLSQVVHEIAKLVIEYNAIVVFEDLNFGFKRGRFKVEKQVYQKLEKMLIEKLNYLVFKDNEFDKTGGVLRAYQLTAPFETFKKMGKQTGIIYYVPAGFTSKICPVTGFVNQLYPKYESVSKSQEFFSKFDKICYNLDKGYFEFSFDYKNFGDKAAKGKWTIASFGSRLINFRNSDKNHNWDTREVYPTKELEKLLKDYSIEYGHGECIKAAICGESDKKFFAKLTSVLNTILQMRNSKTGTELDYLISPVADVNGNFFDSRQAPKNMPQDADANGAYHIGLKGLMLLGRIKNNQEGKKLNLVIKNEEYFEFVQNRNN
Test [2] deals with restriction endonuclease Nde1. Kind of test: Gel cleavage specificity assay, Nde1. Particulars: 20 uM. Type of test: biochemical.
Test [3] addresses T1, SpCas9. Kind of test: eGFP disruption assay, SpCas9, U2OS.eGFP.PEST cells. Type of test: cell-based. The conditions noted are these: for % GFP+, Rep 1 / Z score Rep1 / Normalized Z rep1: replicate 1; for % GFP+, Rep 2 / Z socre Rep2 / Normalized Z rep2: replicate 2; for SpCas9 eGFP disruption Rep1: replicate 1, raw readout; for SpCas9 eGFP disruption Rep1 / SpCas9 eGFP disruption Rep2: Cas9 = lower control, Ctrl = upper control; for Normalized Z rep1 / Normalized Z rep2: lower control about 0, upper control about 1; for SpCas9 eGFP disruption Rep2: replicate 2, raw readout. Summed up:
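Rescue of eGFP signal lost through Cas9-induced NHEJ indels serves as the inhibition read-out, after 24 h compound exposure (20 μM for hits, variable for dose-response). Editing was delivered by nucleofection into U2OS.eGFP.PEST cells as SpCas9/gRNA plasmids (300/30 ng) or RNP (10/12 pmol). Toxic and autofluorescent compounds were excluded.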

In test [4] the target is T1, SpCas9. Put plainly: HiBiT knock-in assay, SpCas9, HEK293T cells. The class given is cell-based. An excerpt:
Primary and secondary screening. The primary screen assayed a selection of unique chemical scaffolds derived from commercially available compounds and known bioactive molecular libraries (Table 7). Auto-fluorescent compounds were removed by a counter screen. Overall, the CAA was used to assay 122,409 small molecules with over 2,500 unique chemical scaffolds (FIG. 64F, Table 7). Of these compounds, 547 were selected as hits (Z score >3 in both replicates) for testing in orthogonal cell-based secondary assays. Hits were tested in duplicate in an eGFP disruption assay, wherein U2OS.eGFP.PEST cells^33 transfected with SpCas9 plasmid and eGFP-targeting gRNA plasmid were incubated with 20 μM of the compounds. In this assay, any compound that inhibited SpCas9 would rescue the loss of eGFP fluorescence. Here, toxic and auto-fluorescent compounds with a high GFP signal in cells were removed as false positives. […] Next, Applicants tested the 15 compounds in a luminescence-based gain-of-signal HiBiT knock-in assay, which involves SpCas9-mediated homology-directed tagging of GAPDH with a short peptide that luminesces upon complementation with a subunit derived from nanoluciferase.^34 Complementarily, the eGFP-disruption assay is fluorescence-based and involves error-prone DNA repair. As a counter-screen to remove false positives caused by cell death (viability <80%), the cell viability was measured after incubation.
Approximately 400,000 HEK293T cells were nucleofected with 400 ng of SpCas9 plasmid, 40 ng of GAPDH-targeting gRNA plasmid, and 40 pmol of single-strand oligodeoxynucleotide (ssODN) using SF Cell Line 4D-Nucleofector X Kit (Lonza) following the pulse program of DS-150. For RNP-based genome editing, 10 pmol of Cas9 and 12 pmol of gRNA were mixed and incubated for 5 min. Then, 20 pmol of ssODN was added. Cells were nucleofected with the resulting mixture using the same pulse program. Cells were then transferred to a 96-well plate at the density of 35,000 cells per well, and incubated with indicated amount of compounds for 24 h. Cell viability was measured using PrestoBlue reagent (Thermo) with a SpectraMax M5 (Molecular Devices) at the excitation and emission wavelength of 544 nm and 590 nm, respectively. Next, luminescence measurement was performed using the Nano-Glo HiBiT Lytic Detection System (Promega) according to the manufacturer's protocol with an EnVision Multilabel Plate Reader (PerkinElmer) at the integration time of 0.5 s per well. The resulting luminescence signals were normalized based on the cell viability.^34

Test [5] addresses T1, SpCas9. Kind of test: Strand displacement assay (SDA) / cumulative activity assay (CAA), SpCas9 primary screen. Type of test: biochemical. The conditions noted are these: Primary Screen (150 min); for Normalized Z score 1: replicate 1; for Normalized Z score 2: replicate 2. Put shortly:
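SpCas9:gRNA RNP in 20 mM Tris-HCl pH 7.5, 100 mM KCl, 5 mM MgCl2 was used at 10 nM (2× stock) with Alexa Fluor 647-labelled substrate and excess quencher strand (1 nM and 5 nM, 2× stocks). Fluorescence was read after 2.5 h at 37 °C, where cleavage lets the quencher strand anneal.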

In test [6] the target is T2, SpCas9:gRNA complex (Streptococcus pyogenes serotype M1, UniProt Q99ZW2). The conditions noted are these: control without BRD7586 scaffold.
T2 sequence (Q99ZW2 whole entry, one chain of several): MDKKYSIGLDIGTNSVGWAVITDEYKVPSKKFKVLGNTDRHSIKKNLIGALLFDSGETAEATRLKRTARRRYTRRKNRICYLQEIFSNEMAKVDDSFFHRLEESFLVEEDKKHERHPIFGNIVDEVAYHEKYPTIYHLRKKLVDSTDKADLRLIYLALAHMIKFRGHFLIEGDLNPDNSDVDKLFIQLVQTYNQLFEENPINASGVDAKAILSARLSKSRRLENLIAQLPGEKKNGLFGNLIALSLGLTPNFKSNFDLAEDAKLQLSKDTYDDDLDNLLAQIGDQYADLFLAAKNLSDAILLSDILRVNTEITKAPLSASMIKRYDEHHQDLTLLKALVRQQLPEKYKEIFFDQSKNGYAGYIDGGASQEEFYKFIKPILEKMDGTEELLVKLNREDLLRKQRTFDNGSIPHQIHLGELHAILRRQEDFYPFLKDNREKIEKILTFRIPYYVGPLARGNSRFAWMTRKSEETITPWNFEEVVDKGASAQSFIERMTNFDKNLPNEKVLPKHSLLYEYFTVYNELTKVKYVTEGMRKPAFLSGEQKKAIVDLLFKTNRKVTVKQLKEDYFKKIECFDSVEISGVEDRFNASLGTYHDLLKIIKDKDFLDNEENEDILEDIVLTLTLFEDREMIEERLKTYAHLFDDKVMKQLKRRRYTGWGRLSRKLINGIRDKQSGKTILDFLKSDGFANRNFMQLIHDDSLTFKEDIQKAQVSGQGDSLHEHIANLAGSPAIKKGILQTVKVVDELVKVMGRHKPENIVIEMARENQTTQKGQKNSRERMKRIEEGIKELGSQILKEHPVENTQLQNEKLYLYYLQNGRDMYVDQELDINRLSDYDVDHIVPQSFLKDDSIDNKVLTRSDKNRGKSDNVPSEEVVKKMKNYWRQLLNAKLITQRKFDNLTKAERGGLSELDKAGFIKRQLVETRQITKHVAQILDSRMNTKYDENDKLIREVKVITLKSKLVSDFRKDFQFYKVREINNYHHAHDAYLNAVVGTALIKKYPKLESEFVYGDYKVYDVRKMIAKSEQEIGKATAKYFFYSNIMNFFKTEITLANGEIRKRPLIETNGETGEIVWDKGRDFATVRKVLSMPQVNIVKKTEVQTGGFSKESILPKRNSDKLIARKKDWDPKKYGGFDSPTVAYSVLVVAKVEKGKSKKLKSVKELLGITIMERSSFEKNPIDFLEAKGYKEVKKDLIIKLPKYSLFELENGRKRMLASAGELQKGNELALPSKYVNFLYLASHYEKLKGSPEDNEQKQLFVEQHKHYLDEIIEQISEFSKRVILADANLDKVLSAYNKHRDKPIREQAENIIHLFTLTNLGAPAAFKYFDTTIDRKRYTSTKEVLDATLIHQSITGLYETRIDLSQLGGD
For test [7], the target named is T2, SpCas9:gRNA complex. Put plainly: biochemical.

T1 sequence (Q99ZW2 whole entry): as the sequence (Q99ZW2 whole entry, one chain of several) above

Take `C#CCCC1(CCOc2ccc(S(=O)(=O)CCC(=O)Nc3nc(-c4ccncc4)cs3)cc2)N=N1` [diazirine-BRD7586]: the “Photo-crosslinking to SpCas9” value on SpCas9:gRNA is given as “successful covalent conjugation of the probe to SpCas9”. Also, at SpCas9 [1], the “Inhibition of SpCas9 in cells by probe” value is given as “inhibited SpCas9 in cells”.
With `CCc1cccc(-n2nnnc2N2CCN(C(=O)Nc3ccc(Br)c(C)c3)CC2)c1` [Compound L378-0372], the “Activity against FnCpf1 in gel cleavage assay” value (“Activity against FnCpf1” below) at FnCpf1 is listed as “active in Fncpf1”. In addition, the “Activity against Nde1 in gel cleavage assay” value (shortened to “Activity against Nde1”) in test [2] is given as “not Nde1”.
With `CCc1cccc(-n2nnnc2N2CCN(C(=O)Nc3ccc(C)cc3C)CC2)c1` [Compound L378-0355], on FnCpf1, the “Activity against FnCpf1” value is recorded as “active in Fncpf1”. In addition, the “Activity against Nde1” value in test [2] is reported as “not Nde1”.
In the case of `CCc1cccc(-n2nnnc2N2CCN(C(=O)Nc3cccc(C)c3)CC2)c1` [Compound L378-0350], the “Activity against FnCpf1” value at FnCpf1 is recorded as “active in Fncpf1”. In addition, the “Activity against Nde1” value in test [2] is “not Nde1”.
As for `CCN1C(=O)c2cccc3cccc1c23` [Compound T0503-6911], at SpCas9 [3], the eGFP disruption-% inhibition is given as 26.33%, the “Z score Rep1” value is on record as 3.76, the “SpCas9 eGFP disruption Rep1” value is recorded as 67.522 and the “Normalized Z rep1” value was 0.26. Also, at SpCas9 [3], the “Z socre Rep2” value was found to be 6.09, the “SpCas9 eGFP disruption Rep2” value is on record as 66.588 and the “Normalized Z rep2” value is listed as 0.29. On SpCas9 [3] (eGFP assay), the “% GFP+, Rep 1” value came to 67.52%; the “Z score Rep1” value was 3.76; the “% GFP+, Rep 2” value stood at 66.59%. Besides, the Hibit assay-% inhibition on SpCas9 [4] came out at 18.06%. For the same compound, at SpCas9 [5], the “avg z score primary” value is on record as 6.86, the “Normalized Z score 1” value is listed as 0.06 and the “Normalized Z score 2” value came out at 0.10. For the same compound, the “Average Normalized Z score” value on SpCas9 [5] (average of replicates) came out at 0.08.
On to `Cc1ccccc1C(=O)Nc1nc2ccc(S(N)(=O)=O)cc2s1` [Compound G786-1547], for which, on SpCas9 [3], the eGFP disruption-% inhibition is listed as 42.41%, the “Z score Rep1” value is on record as 3.88, the “SpCas9 eGFP disruption Rep1” value was found to be 82.802 and the “Normalized Z rep1” value was 0.37. For the same compound, at SpCas9 [3], the “Z socre Rep2” value was 9.85, the “SpCas9 eGFP disruption Rep2” value is on record as 84.086 and the “Normalized Z rep2” value was determined as 0.43. On SpCas9 [3] (eGFP assay), the “% GFP+, Rep 1” value is recorded as 82.8%; the “Z score Rep1” value is 3.88; the “% GFP+, Rep 2” value is reported as 84.09%. Besides, the Hibit assay-% inhibition at SpCas9 [4] was found to be 4.3%. In addition, at SpCas9 [5], the “Average Normalized Z score” value was found to be 0.04, the “avg z score primary” value was determined as 3.81, the “Normalized Z score 1” value was found to be 0.04 and the “Normalized Z score 2” value was found to be 0.04.
In the case of `[N-]=[N+]=NCCOCCOCCOCCNC(=O)CCCC[C@@H]1SC[C@@H]2NC(=O)N[C@@H]21` [biotin-PEG3-azide], the “Binding in BLI” value at SpCas9:gRNA complex [6] is “No detectable binding”.
At SpCas9:gRNA complex [7], `O=C(CCCCC1SC[C@H]2NC(=O)N[C@@H]12)NCCOCCOCCOCCC(=O)NCCOc1ccc(S(=O)(=O)CCC(=O)Nc2nc(-c3ccncc3)cs2)cc1` (stereo partly shown) [biotin-BRD7586] registered a Kd of 520 nM.
